{"source": "patent US12616713B2", "about": "“Methods for enhancing vascular density” (priority 2016, dated 2026)", "key": {"HUVECs": {"tested_on": "HUVECs", "assay": "Seahorse analysis of oxygen consumption rate", "assay_type": "cell-based, human", "conditions": "NaHS 100 μM, NMN 500 μM", "experimental": "Oxygen consumption rates were measured in accordance with manufacturer instructions using Seahorse XF96 analyzer (Seahorse Bioscience). Briefly, 40,000 HUVECs were plated onto XF96 plates and incubated overnight at 37° C./5% CO2. Next day, the media was replaced with XF assay media (DMEM), supplemented with glucose (1 g/L), glutamate (2 mM) and pyruvate (1 mM) and the pH was adjusted to 7.4. NaHS (100 μM) and/or NMN (500 μM) were added at the start of the experiment. Oxygen consumption measurements were made approximately every 8 minutes under basal conditions, and after the addition of oligomycin (1 μM). Experiments were replicated in six wells and averaged for each experimental condition."}, "Notch signaling": {"tested_on": "Notch signaling", "assay": "Notch target genes and NICD in VEGF- or Dll4-stimulated HAECs", "assay_type": "cell-based, human", "experimental": "Dll4 and VEGF stimulation of ECs. The ECs to be stimulated were serum-starved overnight and transferred to media containing VEGF (50 ng/mL) or to Dll4-coated plates, and then incubated for indicated time. Dll4 coating was performed as described before (Guarani et al., 2011, Nature 473, 234-238). Lyophilized recombinant Dll4 (R&D Systems) were reconstituted in PBS containing 0.1% bovine serum albumin. The culture dishes were coated with Dll4 (0.5 μg/mL) in 0.1 gelatin solution for 1 hr at 37° C.\nTotal mRNA was isolated from cells and tissues using TRIzol (Life Technologies). cDNAs were synthesized from 1 μg of total RNA using M-MLV reverse transcriptase (Biorad). qPCR was performed with LightCycler […] SYBR Green I Mastermix (Roche) using the LightCycler 480 System (Roche) according to the manufacturer's instructions. Relative mRNA expression levels were calculated using the ΔΔCt method.\nSDS-PAGE and Western blot analysis were performed according to standard procedures and detected with the ECL detection kit (Bio-rad, Australia). […] Quantification of band intensities by densitometry was carried out using ImageJ software."}, "HAECs": {"tested_on": "HAECs", "assay": "Spheroid sprouting assay, HAECs", "assay_type": "cell-based, human", "experimental": "(§1) ECs spheroids were generated as described previously (Korff and Augustin, 1998, J Cell Biol 143, 1341-1352). ECs (1000 cells per spheroid) were suspended in EGM-2 medium containing 20% methocel (viscosity: 4000 cps, Sigma) and seeded in non-adherent round-bottom 96-well plates (Sigma). Under these conditions all suspended cells contributed to the formation of a single spheroid. The spheroids were harvested after 24 h embedded into collagen gels. Sprouting was initiated by adding C2C12 CM or EBM-2 medium containing VEGF (50 ng/mL). NMN (0.5 mM), NaHS (0.1 mM), DAPT (20 μM, Cayman Chemical) or SU5416 (10 μM, Sigma) were added to the media wherever mentioned. Angiogenic activity was quantified by measuring the sprout length that had grown out of each spheroid analyzing 8-10 spheroids per group."}, "[1]": {"tested_on": "MLECs from WT and ESKO mice", "assay": "Spheroid sprouting assay, MLECs", "assay_type": "cell-based, mouse", "conditions": "WT versus ESKO MLECs, C2C12 CM, NMN 0.5 mM", "experimental": "as §1"}, "[2]": {"tested_on": "human aortic endothelial cells (HAECs)", "assay": "Tube formation assay, HAECs", "assay_type": "cell-based", "experimental": "Formation of tube networks was assessed as described before (Borradaile and Pickering, 2009, Aging Cell 8, 100-112). ECs were seeded at 10,000 cells per well in a 24-well plate (Corning) coated with 150 μL Cultrex reduced growth factor basement membrane extract (Trevigen). The cells were supplemented with C2C12 CM or EBM-2 medium containing VEGF (30 ng/mL) or FGF (30 ng/mL). […] Following an 18 h-incubation, resulting tube networks were analyzed by light microscopy (Nikon Eclipse TiE). For tube formation assays with H2O2 treatment, cells were incubated with 150 μM H2O2 for 1 h before seeding and imaged after 10 h-incubation. The number of branch points and total length of tubule networks were quantified by ImageJ software."}, "[3]": {"conditions": "NMN and VEGF (30 ng/mL) cotreatment of HAECs, compared to VEGF alone"}}, "data": [{"molecule": "NC(=O)c1ccc[n+]([C@@H]2O[C@H](COP(=O)([O-])O)[C@@H](O)[C@H]2O)c1", "note": "[NMN, nicotinamide mononucleotide]", "values": [{"measurement": "basal OCR", "setting": "HUVECs", "value": "had no effect"}, {"measurement": "NICD protein levels", "setting": "Notch signaling; VEGF- or Dll4-stimulated HAECs, NMN 0.5 mM", "value": "promoted NICD reduction"}, {"measurement": "Notch target gene expression", "setting": "Notch signaling; after stimulation with VEGF (50 ng/mL) or Dll4, NMN 0.5 mM", "value": "significantly decreased"}, {"measurement": "ability of NMN to stimulate spheroid sprouting, dependence on SIRT1", "setting": "HAECs; NT or SIRT1 siRNA, VEGF 50 ng/mL, NMN 0.5 mM", "value": "SIRT1-dependent"}, {"measurement": "rescue of SU5416-blocked sprouting", "setting": "HAECs; SU5416 10 μM plus NMN 0.5 mM", "value": "not rescued"}, {"measurement": "VEGF-mediated spheroid sprouting after knockdown of SIRT3 and SIRT6", "setting": "HAECs; T3 or T6 siRNA, VEGF, NMN 0.5 mM", "value": "partially rescued"}, {"measurement": "ability of NMN to stimulate spheroid sprouting, dependence on SIRT1", "setting": "[1]", "value": "SIRT1-dependent"}, {"measurement": "number of branch points and total length of tubes", "setting": "[2]; NMN 10 μM, 100 μM or 500 μM versus PBS", "value": "steadily increased"}, {"measurement": "increase in number of branch points", "setting": "[2]; [3]", "value": 32, "unit": "%"}, {"measurement": "increase in tubule length", "setting": "[2]; [3]", "value": 15, "unit": "%"}, {"measurement": "increase in number of branch points", "setting": "[2]; NMN itself, without VEGF", "value": 25, "unit": "%"}, {"measurement": "ability of NMN to stimulate tube formation, dependence on SIRT1", "setting": "[2]; NT or SIRT1 siRNA, VEGF 30 ng/mL, NMN 0.5 mM", "value": "SIRT1-dependent"}, {"measurement": "effects of NMN on VEGF-mediated tube formation after knockdown of SIRT1", "setting": "[2]; Scr or SIRT1 siRNA, NMN 500 μM", "value": "completely blocked by knockdown of SIRT1"}, {"measurement": "VEGF-mediated tube formation after knockdown of SIRT3 and SIRT6", "setting": "[2]; T3 or T6 siRNA, VEGF 30 ng/mL, +/- NMN", "value": "partially rescued"}, {"measurement": "disintegration of tubes", "setting": "[2]; time-lapse videos, extended 18 h period", "value": "prevented the disintegration of tubes"}]}]}
